Laboratory results taken from patent publication US8497092B2, “Method of bioassaying yokukansan” (Tsumura & Co., priority 2008, dated 2013).

Columns and labels:
PC12 cells [1] = experiment: Induction of cell death by glutamate in PC12 cells (MTT assay); assay type: cell-based, rat; settings: regardless of whether NGF stimulation is present
Experimental: By using PC12 cells obtained in Example 1, a culture condition to efficiently induce cell death by glutamate was studied as follows.
From the above studies, the best culture condition for inducing cell death by glutamate was determined as follows: the cells are seeded on a plate coated with collagen, and a medium supplemented with dialyzed serum and without phenol red is used as an induction medium. The induction medium contains an antibiotic-containing medium obtained by adding 5 mL of a penicillin-streptomycin solution to 500 mL of RPMI 1640 medium (GIBCO 11835-030), 5% dialyzed fetal bovine serum (GIBCO 26400-044), and 10% dialyzed horse serum (Biowest S090D). […]
After 24 hours from the above induction of cell death, 0.5% MTT solution (Dojindo 345-01821) was added in an amount of 20 μL per 100 μL of the medium in the above 96-well plate and cultured for 5 hours. […] The crystals of formazan were dissolved using a pipette, and after leaving the solution overnight, the absorbance at a wavelength of 570 nm was measured with a reference wavelength of 690 nm using a spectrometer (Multiskan MCC/340, manufactured by Titertek, Inc.). Thereafter, the cell viability was calculated from the following calculation formula on the basis of the obtained absorbance. […]

PC12 cells [2] = settings: Non-Patent Documents 1 to 3; cited from earlier work

Row | Compound | cell death caused by glutamate (PC12 cells [1]) | inhibition of cell death caused by glutamate (PC12 cells [2])
1 | N[C@@H](CCC(=O)O)C(=O)O [glutamate] | concentration-dependent manner | 
2 | (−)-epigallocatechin gallate |  | cell death is inhibited
